Measurements taken from patent US20210252151A1, “METHOD FOR OPTICAL OPENING OF THE BLOOD-BRAIN BARRIER” (BOARD OF REGENTS, THE UNIVERSITY OF TEXAS SYSTEM, priority 2018, published 2021).

Tested on: BBB of C57BL/6 mice
Experiment: Delivery of functional molecules to the brain after BBB transient opening
Format: in vivo, mouse
Settings: after TJ-targeting AuNP and ps laser (25 mJ/cm^2, 1 pulse)
Description: To measure the penetration of functional molecule, the anti-cancer drug, doxorubicin, and antibody (human IgG) instead of Evans blue dye were inject intravenously. To test endogenous mouse IgG extravasation, the secondary antibody was incubated with mouse brain tissue sections, followed by fluorescent signal detection.

crossing of the BBB (extravasation into brain): obvious Dox across the BBB
Compound: COc1cccc2c1C(=O)c1c(O)c3c(c(O)c1C2=O)C[C@@](O)(C(=O)CO)C[C@@H]3O[C@H]1C[C@H](N)[C@H](O)[C@H](C)O1 [Dox, doxorubicin]
